From ChEMBL document CHEMBL3797064, “An evaluation of synthetic indole derivatives as inhibitors of monoamine oxidase” (Bioorg Med Chem Lett, 2016)

Tests used:
[1] = target: T1, Amine oxidase [flavin-containing] A (Homo sapiens, UniProt P21397); experiment: Inhibition of human recombinant MAO-A using kynuramine as substrate incubated for 20 mins by fluorescence spectrophotometric analysis
T1 sequence (P21397 whole entry): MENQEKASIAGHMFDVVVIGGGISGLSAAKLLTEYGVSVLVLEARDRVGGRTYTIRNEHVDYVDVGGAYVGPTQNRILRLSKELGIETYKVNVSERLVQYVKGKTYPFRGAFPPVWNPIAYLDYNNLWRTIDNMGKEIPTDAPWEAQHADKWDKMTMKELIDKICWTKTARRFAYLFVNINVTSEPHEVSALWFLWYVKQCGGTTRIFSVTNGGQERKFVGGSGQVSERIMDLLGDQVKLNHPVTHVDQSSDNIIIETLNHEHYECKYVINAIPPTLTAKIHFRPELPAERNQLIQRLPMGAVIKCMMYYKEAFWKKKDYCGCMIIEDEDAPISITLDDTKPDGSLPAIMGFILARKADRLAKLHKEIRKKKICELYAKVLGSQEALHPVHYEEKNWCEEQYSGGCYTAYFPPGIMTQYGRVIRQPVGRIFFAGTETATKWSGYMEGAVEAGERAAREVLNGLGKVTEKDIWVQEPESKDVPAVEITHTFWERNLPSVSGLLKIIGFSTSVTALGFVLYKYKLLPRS

[2] = target: T2, Amine oxidase [flavin-containing] B (Homo sapiens, UniProt P27338); experiment: Inhibition of human recombinant MAO-B using kynuramine as substrate incubated for 20 mins by fluorescence spectrophotometric analysis
T2 sequence (P27338 whole entry): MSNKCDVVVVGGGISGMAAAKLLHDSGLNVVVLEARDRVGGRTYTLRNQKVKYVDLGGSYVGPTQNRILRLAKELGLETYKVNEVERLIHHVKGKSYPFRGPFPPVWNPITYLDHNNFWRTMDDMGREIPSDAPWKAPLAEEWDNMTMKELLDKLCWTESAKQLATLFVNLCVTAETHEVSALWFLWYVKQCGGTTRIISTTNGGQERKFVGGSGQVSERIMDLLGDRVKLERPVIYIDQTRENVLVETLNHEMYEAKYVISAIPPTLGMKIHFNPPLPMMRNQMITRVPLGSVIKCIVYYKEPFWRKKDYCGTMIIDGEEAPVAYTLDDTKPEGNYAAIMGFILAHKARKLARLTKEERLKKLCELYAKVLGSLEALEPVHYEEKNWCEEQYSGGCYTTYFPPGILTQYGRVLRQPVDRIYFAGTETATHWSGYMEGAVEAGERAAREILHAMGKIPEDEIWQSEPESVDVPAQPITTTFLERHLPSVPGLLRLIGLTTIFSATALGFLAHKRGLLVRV

Homo sapiens = species: Homo sapiens; experiment: Selectivity index, ratio of IC50 for human recombinant MAO-B to IC50 for human recombinant MAO-A

Compound | IC50 [1] [µM] | IC50 [2] [µM] | Ratio IC50 (Homo sapiens)
O=C1NC(=O)c2cc3c(cc21)cc(-c1cccs1)n3O | 6.35 | > 100 | > 16
O=C(Cc1cc2c(cc1[N+](=O)[O-])C(=O)NC2=O)c1cccs1 | 6.12 | > 100 | > 16
COn1c(-c2ccc(C)cc2)cc2cc3c(cc21)C(=O)NC3=O | 1.75 | 0.581 | 0.33
O=C(O)c1cc2cc(-c3ccccc3)n(O)c2cc1C(=O)O | 23.3 | 56.2 | 2.4
N#Cc1cc2cc(-c3ccccc3)n(O)c2cc1C#N | 6.92 | 10.3 | 1.5
Cc1ccc(C(=O)Cc2cc3c(cc2[N+](=O)[O-])C(=O)NC3=O)cc1 | 2.11 | 0.923 | 0.44
COn1c(-c2ccc(C)cc2)c(C=O)c2cc(C#N)c(C#N)cc21 | 0.405 | 74.8 | 185
COc1ccc(C(=O)Cc2cc(C(=O)O)c(C(=O)O)cc2[N+](=O)[O-])cc1 | > 100 | > 100 | 
COn1c(-c2ccccc2)c(Br)c2cc(C#N)c(C#N)cc21 | > 100 | > 100 | 
O=C(O)c1cc2cc(-c3cccs3)n(O)c2cc1C(=O)O | > 100 | > 100 | 
O=C1NC(=O)c2cc3c(Cl)c(-c4ccccc4)[nH]c3cc21 | 0.25 | > 100 | > 400
N#Cc1cc2cc(-c3cccs3)n(O)c2cc1C#N | 11.1 | > 100 | > 9
O=C1NC(=O)c2cc3c(cc21)cc(-c1ccccc1)n3O | > 100 | 83.1 | < 0.83
COC(=O)c1cc2cc(-c3ccc(OC)cc3)n(OC)c2cc1C(=O)OC | 19 | > 100 | > 5.3
COc1ccc(C(=O)Cc2cc3c(cc2[N+](=O)[O-])C(=O)NC3=O)cc1 | 0.661 | 1.21 | 1.8
COn1c(-c2ccccc2)c(CO)c2cc(C#N)c(C#N)cc21 | 4.99 | > 100 | > 20
COn1c(-c2ccccc2)c(C=O)c2cc(C#N)c(C#N)cc21 | 0.522 | > 100 | > 192
COc1ccc(-c2c(C=O)c3cc(C#N)c(C#N)cc3n2OC)cc1 | 0.147 | > 100 | > 680

Compound | IC50 [1] [µM] | IC50 [2] [µM] | Ratio IC50 (Homo sapiens)
COn1c(-c2ccc(C)cc2)c(Br)c2cc(C#N)c(C#N)cc21 | > 100 | 7.46 | < 0.075
Cc1ccc(-c2cc3cc(C(=O)O)c(C(=O)O)cc3n2O)cc1 | > 100 | > 100 | 
O=C(Cc1cc2c(cc1[N+](=O)[O-])C(=O)NC2=O)c1ccccc1 | 5.38 | 6.79 | 1.3
Cc1ccc(C(=O)Cc2cc(C(=O)O)c(C(=O)O)cc2[N+](=O)[O-])cc1 | > 100 | > 100 | 
COc1ccc(-c2c(CO)c3cc(C#N)c(C#N)cc3n2OC)cc1 | 1.13 | > 100 | > 88
COc1ccc(-c2cc3cc(C#N)c(C#N)cc3n2O)cc1 | 1.84 | 1.79 | 0.97
COn1c(-c2ccccc2)cc2cc3c(cc21)C(=O)N(C)C3=O | 1.24 | > 100 | > 81
COn1c(-c2cccs2)cc2cc3c(cc21)C(=O)NC3=O | 6.7 | 3.75 | 0.56
COn1c(-c2ccc(C)cc2)c(CO)c2cc(C#N)c(C#N)cc21 | 5.12 | > 100 | > 20
COc1ccc(C(=O)Cc2cc3c(cc2[N+](=O)[O-])C(=O)N(Cc2ccccc2)C3=O)cc1 | 5.51 | > 100 | > 18
CC(=O)On1c(-c2cccs2)cc2cc(C#N)c(C#N)cc21 | 2.08 | 1.94 | 0.93
O=C(Cc1cc(C(=O)O)c(C(=O)O)cc1[N+](=O)[O-])c1cccs1 | > 100 | > 100 | 
O=C(Cc1cc(C(=O)O)c(C(=O)O)cc1[N+](=O)[O-])c1ccccc1 | > 100 | > 100 | 
COc1ccc(-c2cc3cc(C(=O)O)c(C(=O)O)cc3n2O)cc1 | > 100 | > 100 | 
O=C(Cc1cc2c(cc1[N+](=O)[O-])C(=O)N(Cc1ccccc1)C2=O)c1cccs1 | > 100 | > 100 | 
Cc1ccc(-c2cc3cc4c(cc3n2O)C(=O)NC4=O)cc1 | 1.16 | 8.09 | 7
Cc1ccc(-c2cc3cc(C#N)c(C#N)cc3n2O)cc1 | 1.14 | 0.821 | 0.72
